# Reference: the NIST ThermoML archive (doi:10.1016/j.jct.2011.08.019)
# Where “and” joins values, the source holds several entries; their conditions need not be identical. Equal entries are not always repeated. Numbers after ± are expanded uncertainties.
# Test: molar heat capacity at constant pressure
# Conditions: 101.33 kPa, Liquid, Small sample (50 mg) DSC
Structure (SMILES),molar heat capacity at constant pressure (343.15 K),molar heat capacity at constant pressure (348.15 K),molar heat capacity at constant pressure (353.15 K),molar heat capacity at constant pressure (358.15 K),molar heat capacity at constant pressure (363.15 K),molar heat capacity at constant pressure (368.15 K),molar heat capacity at constant pressure (373.15 K),molar heat capacity at constant pressure (378.15 K),molar heat capacity at constant pressure (383.15 K),molar heat capacity at constant pressure (388.15 K),molar heat capacity at constant pressure (393.15 K),molar heat capacity at constant pressure (398.15 K),molar heat capacity at constant pressure (403.15 K),molar heat capacity at constant pressure (408.15 K),molar heat capacity at constant pressure (413.15 K),molar heat capacity at constant pressure (418.15 K),molar heat capacity at constant pressure (423.15 K),molar heat capacity at constant pressure (428.15 K),molar heat capacity at constant pressure (433.15 K),molar heat capacity at constant pressure (438.15 K),other results
CCCCCCCCCCCCCC[P+](CCCCCC)(CCCCCC)CCCCCC.FC(F)(F)C(F)(F)[P-](F)(F)(F)(C(F)(F)C(F)(F)F)C(F)(F)C(F)(F)F,1547.5 ± 160 J/K/mol [middle of 4 runs],1556.8 ± 160 J/K/mol [middle of 4 runs],1566.1 ± 160 J/K/mol and 1563.3 ± 160 J/K/mol,1577.2 ± 160 J/K/mol and 1574.4 ± 160 J/K/mol,1587.4 ± 160 J/K/mol and 1583.7 ± 160 J/K/mol and 1585.6 ± 160 J/K/mol,1596.7 ± 160 J/K/mol [middle of 4 runs],1604.1 ± 160 J/K/mol [middle of 4 runs],1615.3 ± 160 J/K/mol [middle of 4 runs],1626.4 ± 160 J/K/mol [middle of 4 runs],1634.8 ± 170 J/K/mol,1645 ± 170 J/K/mol [middle of 4 runs],1652.4 ± 170 J/K/mol [middle of 4 runs],1661.7 ± 170 J/K/mol [middle of 4 runs],1668.2 ± 170 J/K/mol and 1669.2 ± 170 J/K/mol,1678.4 ± 170 J/K/mol and 1677.5 ± 170 J/K/mol,1688.7 ± 170 J/K/mol and 1685.9 ± 170 J/K/mol and 1687.7 ± 170 J/K/mol,1697 ± 170 J/K/mol [middle of 4 runs],1700.7 ± 170 J/K/mol [middle of 4 runs],1707.2 ± 170 J/K/mol and 1711 ± 170 J/K/mol,1722.1 ± 170 J/K/mol [middle of 4 runs],molar heat capacity at constant pressure (338.15 K): 1543.8 ± 160 J/K/mol [middle of 4 runs]; molar heat capacity at constant pressure (443.15 K): 1727.7 ± 170 J/K/mol [middle of 4 runs]; molar heat capacity at constant pressure (448.15 K): 1735.1 ± 180 J/K/mol [middle of 4 runs]; molar heat capacity at constant pressure (453.15 K): 1743.5 ± 180 J/K/mol [middle of 4 runs]; molar heat capacity at constant pressure (458.15 K): 1750 ± 180 J/K/mol and 1753.7 ± 180 J/K/mol and 1739.7 ± 180 J/K/mol; molar heat capacity at constant pressure (463.15 K): 1756.5 ± 180 J/K/mol [middle of 4 runs]; molar heat capacity at constant pressure (468.15 K): 1761.1 ± 180 J/K/mol [middle of 4 runs]; molar heat capacity at constant pressure (473.15 K): 1763.9 ± 180 J/K/mol [middle of 4 runs]; molar heat capacity at constant pressure (478.15 K): 1771.3 ± 180 J/K/mol [middle of 4 runs]; molar heat capacity at constant pressure (483.15 K): 1768.5 ± 180 J/K/mol and 1776 ± 180 J/K/mol and 1780.6 ± 180 J/K/mol; molar heat capacity at constant pressure (488.15 K): 1785.3 ± 180 J/K/mol [middle of 4 runs]; molar heat capacity at constant pressure (493.15 K): 1785.3 ± 180 J/K/mol [middle of 4 runs]; molar heat capacity at constant pressure (498.15 K): 1787.1 ± 180 J/K/mol [middle of 4 runs]; molar heat capacity at constant pressure (503.15 K): 1798.3 ± 180 J/K/mol [middle of 4 runs]; molar heat capacity at constant pressure (508.15 K): 1802 ± 180 J/K/mol [middle of 4 runs]; molar heat capacity at constant pressure (513.15 K): 1809.4 ± 180 J/K/mol and 1803.8 ± 180 J/K/mol and 1805.7 ± 180 J/K/mol
CCCC[P+](C)(CCCC)CCCC.COS(=O)(=O)[O-] [tributylmethylphosphonium methyl sulfate],668.1 ± 68 J/K/mol and 660.8 ± 67 J/K/mol,672 ± 68 J/K/mol and 665.4 ± 67 J/K/mol,676.3 ± 68 J/K/mol and 669.7 ± 68 J/K/mol,681.2 ± 69 J/K/mol and 674.3 ± 68 J/K/mol,685.8 ± 69 J/K/mol and 678.9 ± 69 J/K/mol,690.4 ± 70 J/K/mol and 683.8 ± 69 J/K/mol,695.3 ± 70 J/K/mol and 687.4 ± 69 J/K/mol,698.3 ± 70 J/K/mol and 692.4 ± 70 J/K/mol,703.2 ± 71 J/K/mol and 697.3 ± 70 J/K/mol,707.2 ± 71 J/K/mol and 702.2 ± 71 J/K/mol,711.1 ± 72 J/K/mol and 705.5 ± 71 J/K/mol,714.4 ± 72 J/K/mol and 711.1 ± 72 J/K/mol,715 ± 72 J/K/mol and 715.4 ± 72 J/K/mol,720 ± 73 J/K/mol and 718.6 ± 73 J/K/mol,726.2 ± 73 J/K/mol and 721.3 ± 73 J/K/mol,729.2 ± 74 J/K/mol and 723.9 ± 73 J/K/mol,733.1 ± 74 J/K/mol and 728.8 ± 74 J/K/mol,736.4 ± 74 J/K/mol and 732.4 ± 74 J/K/mol,738.4 ± 75 J/K/mol and 737.4 ± 74 J/K/mol,743.3 ± 75 J/K/mol and 741.6 ± 75 J/K/mol,molar heat capacity at constant pressure (443.15 K): 745.9 ± 75 J/K/mol and 744.6 ± 75 J/K/mol; molar heat capacity at constant pressure (448.15 K): 748.9 ± 76 J/K/mol and 747.6 ± 76 J/K/mol; molar heat capacity at constant pressure (453.15 K): 751.8 ± 76 J/K/mol and 750.8 ± 76 J/K/mol; molar heat capacity at constant pressure (458.15 K): 754.4 ± 76 J/K/mol and 754.1 ± 76 J/K/mol; molar heat capacity at constant pressure (463.15 K): 757.4 ± 76 J/K/mol and 756.1 ± 76 J/K/mol
CCCCCCCCCCCCCC[P+](CCCCCC)(CCCCCC)CCCCCC.O=S(=O)([N-]S(=O)(=O)C(F)(F)F)C(F)(F)F,1381.3 ± 140 J/K/mol [middle of 4 runs],1390.5 ± 140 J/K/mol [middle of 4 runs],1400.4 ± 140 J/K/mol [middle of 4 runs],1410.4 ± 140 J/K/mol and 1399.7 ± 140 J/K/mol and 1395.1 ± 140 J/K/mol,1419.5 ± 140 J/K/mol [middle of 4 runs],1428.7 ± 140 J/K/mol and 1420.3 ± 140 J/K/mol and 1426.4 ± 140 J/K/mol,1439.4 ± 150 J/K/mol [middle of 4 runs],1445.5 ± 150 J/K/mol [middle of 4 runs],1454.7 ± 150 J/K/mol [middle of 4 runs],1462.3 ± 150 J/K/mol [middle of 4 runs],1470 ± 150 J/K/mol [middle of 4 runs],1479.9 ± 150 J/K/mol [middle of 4 runs],1487.5 ± 150 J/K/mol and 1478.4 ± 150 J/K/mol and 1469.2 ± 150 J/K/mol,1494.4 ± 150 J/K/mol [middle of 4 runs],1501.3 ± 150 J/K/mol [middle of 4 runs],1508.9 ± 150 J/K/mol [middle of 4 runs],1516.6 ± 150 J/K/mol [middle of 4 runs],1521.9 ± 150 J/K/mol [middle of 4 runs],1533.4 ± 150 J/K/mol and 1519.6 ± 150 J/K/mol and 1509.7 ± 150 J/K/mol,1541 ± 160 J/K/mol [middle of 4 runs],molar heat capacity at constant pressure (328.15 K): 1373.7 ± 140 J/K/mol and 1363 ± 140 J/K/mol and 1359.9 ± 140 J/K/mol; molar heat capacity at constant pressure (333.15 K): 1370.6 ± 140 J/K/mol [middle of 4 runs]; molar heat capacity at constant pressure (338.15 K): 1375.2 ± 140 J/K/mol [middle of 4 runs]; molar heat capacity at constant pressure (443.15 K): 1544.8 ± 160 J/K/mol [middle of 4 runs]; molar heat capacity at constant pressure (448.15 K): 1548.6 ± 160 J/K/mol [middle of 4 runs]; molar heat capacity at constant pressure (453.15 K): 1557.8 ± 160 J/K/mol [middle of 4 runs]; molar heat capacity at constant pressure (458.15 K): 1561.6 ± 160 J/K/mol [middle of 4 runs]; molar heat capacity at constant pressure (463.15 K): 1567.7 ± 160 J/K/mol [middle of 4 runs]
